Measurements taken from patent US20250204535A1, “Rodenticide” (priority 2022, published 2025).
Where no end group is shown, it is not given here.

What was measured:
[1] = test system: Neonatal rat cardiomyocytes; assay: Screening synthetic peptides for thermal stability (rat cardiomyocyte beat rate after heating at 100° C.); type: cell-based; settings: peptide heated to 100° C.
Experimental: Thermal stability of the three designed synthetics peptides was investigated. The baseline beat rate of neonatal rat cardiomyocytes to be treated with the synthetic fractions were determined by video microscopy of each well in triplicate using a microscope camera. Average beats/min were calculated from the triplicate readings of three separate wells (n=9). Aliquots of each peptide were heated in a heat block at 100° C. before being used to treat rodent cardiomyocyte cells at doses of 100, 10, 1 and 0.1 μg/ml. Cells were returned to the incubator at 37° C., 5% CO2 for 2 h. After 2 h the beat rate of the treated cardiomyocyte cells was reassessed using the same method used to obtain the pre-dosing beat data. This process was repeated 24 h after the addition of the synthetic peptides. The data of the fold changes in cardiomyocyte beat rate following treatment with the heated synthetic fractions were compared to previously obtains fold-changes in beat rate of the unheated synthetic peptides to assess their thermal stability.

[2] = test system: Neonatal rat cardiomyocytes; assay: Screening synthetic peptides for alterations to rat cardiomyocyte beat rates; type: cell-based
Experimental: (§1) The baseline beat rate of neonatal rat and human IPSC-derived cardiomyocytes to be treated with the three synthetic fractions were determined by video microscopy of each well in triplicate using a microscope camera. Average beats/min were calculated from the triplicate readings of three separate wells (n=9). Aliquots of each peptide were taken to treat neonatal rat cardiomyocyte cells at doses of 100, 10, 1 and 0.1 μg/ml. Cells were returned to a humidified incubator at 37° C., 5% CO2 for 2 h. After 2 h the beat rate of the treated cardiomyocyte cells was reassessed using the same method used to obtain the pre-dosing beat data. This process was repeated 24 h after the addition of the synthetic peptides.

[3] = test system: Human IPSC-derived cardiomyocytes; assay: Screening synthetic peptides for alterations to human IPSC-derived cardiomyocyte beat rates; type: cell-based; settings: 2 h; dose not stated in the sentence (no increase at 0.1, 1 and 10 μg/ml)
Experimental: as §1

Caco-2 cells = assay: Caco-2 permeability assay (bi-directional); settings: for Papp Mean / Papp Rep 1 / Papp Rep 2: 120 min, pH 7.4
Experimental: (§2) Cells were seeded on to Millipore Multiscreen Transwell plates at 1×10^5 cells/cm^2. The cells were cultured in DMEM and media was changed every two or three days. On day 20, the permeability study was performed. […] On the day of the assay, the monolayers were prepared by rinsing both basolateral and apical surfaces twice with Hanks Balanced Salt Solution (HBSS) at the desired pH warmed to 37° C. Cells were then incubated with HBSS at the desired pH in both apical and basolateral compartments for 40 min to stabilise physiological parameters.
(§3) The fluorescent integrity marker lucifer yellow was also included in the dosing solution. Analytical standards were prepared from test compound water dilutions and transferred to buffer, maintaining a ≤1% v/v water concentration. Assay buffer was composed of supplemented HBSS pH 7.4.
(§4) For assessment of apical to basolateral (A2B) permeability, HBSS was removed from the apical compartment and replaced with test compound dosing solution. The apical compartment insert was then placed into a companion plate containing fresh buffer (containing ≤1% v/v Water). For assessment of B2A permeability, HBSS was removed from the companion plate and replaced with test compound dosing solution. Fresh buffer (containing ≤1% v/v Water) was added to the apical compartment insert, which was then placed into the companion plate.
(§5) At 120 min, the apical compartment inserts and the companion plates were separated, and apical and basolateral samples diluted for analysis. Test compound permeability was assessed in duplicate. Compounds of known permeability characteristics were run as controls on each assay plate.
(§6) Test and control compounds were quantified by LC-MS/MS cassette analysis using a 7-point calibration with appropriate dilution of the samples. Cyprotex generic analytical conditions were used. The starting concentration (CO) was determined from the dosing solution and the experimental recovery calculated from CO and both apical and basolateral compartment concentrations.
(§7) The integrity of the polarised cell monolayers throughout the experiment was checked by monitoring lucifer yellow permeation using fluorometric analysis. Permeation of this paracellular marker is low if monolayers have not been damaged. […] If this was not the case, then the result from the affected monolayer was excluded.
(§8) The determined concentration (nM≡pmol/mL) of each test sample receiver well is multiplied by the volume of the receiver compartment (apical=0.09 mL, basolateral=0.210 mL) to calculate the amount (pmol) of probe substrate permeating the monolayer.
(§9) Where dQ/dt is the rate of permeation of the drug across the cells, C0 is the donor compartment concentration at time zero and A is the area of the cell monolayer. C0 was obtained from analysis of the dosing solution.
(§10) An efflux ratio (ER) was calculated from mean A to B and B to A data. This is derived from:
(§11) Percentage recovery (mass balance) of the test compound or positive control substrate was calculated by dividing the sum of the amount (pmol) in the receiver and donor compartments post-incubation by the amount in the initial donor solution at time zero (C0) and expressing as a percentage.
(§12) The insert was inserted into the well of a plate to form an Apical chamber (above cells) and basolateral chamber (below cells), with a permeable membrane between the two layers. Compound was then added to either the apical or basolateral chamber and the passage of it monitored into the other chamber. Transfer of the test compound from the apical to basolateral chamber was indicative of cellular uptake, simulating transition of the compound from the intestinal lumen to the bloodstream by uptake receptors (Direction A). […] An Efflux ratio was then calculated from the values obtained for A2B and B2A transmission.

[4] = Caco-2 permeability assay (bi-directional); settings: human; for recovery at 120 min, 100 μM / recovery at 120 min: Caco-2, pH 7.4, Mean % Recovery; for recovery at 120 min: positive control
Experimental: as §2, §3, §4, §5, §6, §7, §8, §9, §10, §11, §12

[5] = known characteristic of control compound; cited from earlier work

With LKCHKLIPIAWKTK [Synthetic peptide 3] the “maximum fold-increase to beat rate following heating” value [1] was 2.5 fold, the “fold-increases to beat rate, rat cardiomyocytes” value ([2]; 100 μg/ml, 2 h) was “three-fold” and the “peak increases in rat neonatal cardiomyocyte beat rates” value ([2]; peak over 0.1-100 μg/ml) was 3 fold. For the same molecule, the “increases to beat rate, rat cardiomyocytes” value ([2]; three lower tested concentrations, 2 h) was “around two-fold”.
With LKCHKLVPPVWKT [Synthetic peptide 1] the “increase to the beat rate of human cardiomyocytes over pre-dosing beat rate” value [3] was 1.5 fold, the “toxicity to the Caco-2 cells (lucifer yellow monolayer integrity)” value (Caco-2 cells; 100 μM) was “not observed” and the “transporter substrate assessment from the efflux ratio” value (Caco-2 cells; 100 μM, efflux ratio 0.137) was “not a substrate for efflux transporters but could be a possible substrate for uptake transporters”. The “Papp Mean” value (Caco-2 cells; A2B, 100 μM) was 4.60 ×10^−6 cms^−1, the “Papp Rep 1” value (Caco-2 cells; A2B, 100 μM) was 6.48 ×10^−6 cms^−1 and the “Papp Rep 2” value (Caco-2 cells; A2B, 100 μM) was 2.73 ×10^−6 cms^−1. The “Papp Mean” value (Caco-2 cells; B2A, 100 μM) was 0.633 ×10^−6 cms^−1, the “Papp Rep 1” value (Caco-2 cells; B2A, 100 μM) was 0.681 ×10^−6 cms^−1 and the “Papp Rep 2” value (Caco-2 cells; B2A, 100 μM) was 0.584 ×10^−6 cms^−1. It also gave an efflux ratio at 120 min, 100 μM ([4]; Caco-2, pH 7.4) of 0.137, a recovery at 120 min, 100 μM ([4]; A2B) of 45.5% and a recovery at 120 min, 100 μM ([4]; B2A) of 96.6%.
For Cc1cc(=O)n(-c2ccccc2)n1C [Antipyrine, antipyrine], the “Papp Rep 1” value (Caco-2 cells; A2B, positive control) was 47.2 ×10^−6 cms^−1, the “Papp Rep 2” value (Caco-2 cells; A2B, positive control) was 46.9 ×10^−6 cms^−1 and the “Papp Rep 1” value (Caco-2 cells; B2A, positive control) was 38.0 ×10^−6 cms^−1. For the same molecule, the “Papp Rep 2” value (Caco-2 cells; B2A, positive control) was 41.1 ×10^−6 cms^−1, the Papp A→B at 120 min ([4]; Caco-2, pH 7.4) was 47.1 ×10⁻⁶ cm/s and the Papp B→A at 120 min ([4]; Caco-2, pH 7.4) was 39.6 ×10⁻⁶ cm/s. The efflux ratio at 120 min ([4]; Caco-2, pH 7.4) was 0.84, the recovery at 120 min ([4]; A2B) was 90.5% and the recovery at 120 min ([4]; B2A) was 87.8%. The human absorption [5] was 97%.
